From US20230090708A1, “METHODS AND COMPOSITIONS FOR THE TREATMENT OF HEMANGIOMA” (MASSEY VENTURES LIMITED, priority 2020, published 2023)
≈ marks a conversion by molar mass, not a printed value. Entries after “also recorded” stand apart in the source; their conditions may differ. Read-outs that look alike come from different tables or passages of the source.

Legend:
proliferating IH = conditions: topical 0.5% solution or gel; cited from earlier work
[1] = tested on: proliferating hemangioma cells; assay: Experiment 7: different ACEi and beta blockers on one primary cell line, MTT; format: cell-based, human; conditions: for Results Summary: 72 hours, one cell line; for inhibition at 1 µM / inhibition at 10 µM: Homo sapiens, 72 h, read-out: Inhibition vs. Cells + Adjuvant at 72 Hours
Method: (§1) An in vitro cell culture model of infantile hemangioma was developed to assess the impact of renin-angiotensin system inhibitors on cellular proliferation. A primary cell line of proliferating infantile hemangioma cells, including haemangioma stem cells, was derived from a tissue biopsy obtained from patients during the proliferating phase of the disease. The primary cell lines are cultured in 25 cm^2 flasks using standard culture media and conditions. The cultured cells are used to seed 96-well plates with a seed cell concentration of 2500 or 5000 cells per well, with additional culture media (200 μL). All studies are performed in triplicate.
The plates are incubated overnight to allow cell adherence to the wells. The wells are photographed to confirm cell adherence and confluency. The appropriate drug(s) to be examined are subsequently added to the wells. […] The media is aspirated from each well and stored frozen for possible future analyses. Media is added to the wells and an MTT determination is undertaken according to standard protocols.
(§2) From the triplicate incubations of each drug concentration at each time, as well as for all controls, the mean±standard deviation is calculated. The net survival (optical density value) is calculated by subtracting the appropriate blank mean value from each cell culture. From the MTT data, the percentage of survival of cells in the presence of each concentration of drug after each time of culturing is determined.
Briefly, cells were seeded in 96-well plates at concentrations of 2500 cells/well in triplicate for each drug and drug combination. […] All plates were performed in triplicate. Beta blockers used in the study were (±)-propranolol, R-propranolol, S-propranolol, timolol, and betaxalol.

[2] = tested on: proliferating infantile haemangioma cells; assay: Example 2: single 100 μM dose on primary haemangioma cell line, MTT; format: cell-based, human; conditions: for inhibitory effect on haemangioma cell proliferation: 24, 48, 72 hours
Method: (§3) An in vitro cell culture model of infantile hemangioma was developed to assess the impact of renin-angiotensin system inhibitors on cellular proliferation. A primary cell line of proliferating infantile hemangioma cells, including haemangioma stem cells, was derived from a tissue biopsy obtained from patients during the proliferating phase of the disease. The primary cell lines are cultured in 25 cm^2 flasks using standard culture media and conditions. The cultured cells are used to seed 96-well plates with a seed cell concentration of 2500 or 5000 cells per well, with additional culture media (200 μL). All studies are performed in triplicate. The plates are incubated overnight to allow cell adherence to the wells. The wells are photographed to confirm cell adherence and confluency. The appropriate drug(s) to be examined are subsequently added to the wells. After 24 hours, one set of plates (experimental and blank) is stopped. The media is aspirated from each well and stored frozen for possible future analyses. Media is added to the wells and an MTT determination is undertaken according to standard protocols. This is repeated at 48 and 72 hours. From the triplicate incubations of each drug concentration at each time, as well as for all controls, the mean±standard deviation is calculated. The net survival (optical density value) is calculated by subtracting the appropriate blank mean value from each cell culture. From the MTT data, the percentage of survival of cells in the presence of each concentration of drug after each time of culturing is determined. […] This model recapitulates the process of locally administering the drug directly to the hemangioma microenvironment, which is representative of diffusing the drug through skin to reach the target cells.

[3] = tested on: proliferating infantile hemangioma cells derived from multiple patients (n=5); assay: Example 4: single agents and combinations on five patient-derived cell lines, MTT; format: cell-based, human; conditions: for Individual Responders at 72 Hours with ≥30% Inhibition vs. Cells + Adjuvant: responders/cell lines; for Results Summary: 72 hours, n=5 cell lines; for Estimated Optimal Dosage Range in vitro / inhibition of all five patient-derived haemangioma cell lines: single agent
Method: as §3, with “The experimental protocol was performed as per Example 1. Briefly, cells were seeded in 96-well plates at a concentration” for “This model recapitulates the process”, “2500 cells/well in triplicate for each” for “locally administering the”, “and drug combination. Drug(s) were added” for “directly”, “each well 24 hours after seeding and re-dosed every 24 hours. Cell viability was assessed by MTT assay after 24, 48, and 72 hours. All plates were performed in triplicate. Drugs were assessed alone and in combination as described in Table 3.” for “the hemangioma microenvironment, which is representative of diffusing the drug through skin to reach the target cells.”

[4] = cited from earlier work
[5] = in words; cited from earlier work
ACE = ACE (Homo sapiens, UniProt P12821); conditions: enzyme source not given; cited from earlier work
[6] = cited from earlier work; remark: listed apart in the source
[7] = cited from earlier work; remark: listed apart in the source
[8] = tested on: proliferating hemangioma cell lines (n=9); assay: Example 6: single agents and combinations on nine primary cell lines, MTT, CompuSyn combination index; format: cell-based, human; conditions: 1 to 10 μM; 72 hours; n=9
Method: as §1
The plates are incubated overnight to allow cell adherence to the wells. The wells are photographed to confirm cell adherence and confluency. The appropriate drug(s) to be examined are subsequently added to the wells. After 24 hours, one set of plates (experimental and blank) is stopped. The media is aspirated from each well and stored frozen for possible future analyses. Media is added to the wells and an MTT determination is undertaken according to standard protocols. This is repeated at 48 and 72 hours.
as §2
A study was undertaken using combinations of ACE inhibitors, beta blockers and angiotensin II type 2 receptor blockers to inhibit proliferating hemangioma cells. […] Patient histories pertaining to each cell line is described in Table 5.
The experimental protocol was performed as per Example 1. Briefly, cells were seeded in 96-well plates at concentrations of 2500 cells/well in triplicate for each drug and drug combination. Drug(s) were added to each well 24 hours after seeding and re-dosed every 24 hours. Cell viability was assessed by MTT assay after 24, 48, and 72 hours. All plates were performed in triplicate. Drugs were assessed alone and in combination, as described in Table 6. Propranolol was used as a model beta blocker, cilazapril as a model ACE inhibitor, and SMM02 (L-159686) as a model AT2Ri. Synergy was measured using the CompuSyn open-source software protocol for quantifying synergism and antagonism that uses the median-effect equation and mass-action laws to generate a combination index (www.compusyn.com). Synergism, additive effects and antagonism are defined as a CI<1, CI=1, and CI>1, respectively.

Chain of ACE (P12821 30-1306, species assumed): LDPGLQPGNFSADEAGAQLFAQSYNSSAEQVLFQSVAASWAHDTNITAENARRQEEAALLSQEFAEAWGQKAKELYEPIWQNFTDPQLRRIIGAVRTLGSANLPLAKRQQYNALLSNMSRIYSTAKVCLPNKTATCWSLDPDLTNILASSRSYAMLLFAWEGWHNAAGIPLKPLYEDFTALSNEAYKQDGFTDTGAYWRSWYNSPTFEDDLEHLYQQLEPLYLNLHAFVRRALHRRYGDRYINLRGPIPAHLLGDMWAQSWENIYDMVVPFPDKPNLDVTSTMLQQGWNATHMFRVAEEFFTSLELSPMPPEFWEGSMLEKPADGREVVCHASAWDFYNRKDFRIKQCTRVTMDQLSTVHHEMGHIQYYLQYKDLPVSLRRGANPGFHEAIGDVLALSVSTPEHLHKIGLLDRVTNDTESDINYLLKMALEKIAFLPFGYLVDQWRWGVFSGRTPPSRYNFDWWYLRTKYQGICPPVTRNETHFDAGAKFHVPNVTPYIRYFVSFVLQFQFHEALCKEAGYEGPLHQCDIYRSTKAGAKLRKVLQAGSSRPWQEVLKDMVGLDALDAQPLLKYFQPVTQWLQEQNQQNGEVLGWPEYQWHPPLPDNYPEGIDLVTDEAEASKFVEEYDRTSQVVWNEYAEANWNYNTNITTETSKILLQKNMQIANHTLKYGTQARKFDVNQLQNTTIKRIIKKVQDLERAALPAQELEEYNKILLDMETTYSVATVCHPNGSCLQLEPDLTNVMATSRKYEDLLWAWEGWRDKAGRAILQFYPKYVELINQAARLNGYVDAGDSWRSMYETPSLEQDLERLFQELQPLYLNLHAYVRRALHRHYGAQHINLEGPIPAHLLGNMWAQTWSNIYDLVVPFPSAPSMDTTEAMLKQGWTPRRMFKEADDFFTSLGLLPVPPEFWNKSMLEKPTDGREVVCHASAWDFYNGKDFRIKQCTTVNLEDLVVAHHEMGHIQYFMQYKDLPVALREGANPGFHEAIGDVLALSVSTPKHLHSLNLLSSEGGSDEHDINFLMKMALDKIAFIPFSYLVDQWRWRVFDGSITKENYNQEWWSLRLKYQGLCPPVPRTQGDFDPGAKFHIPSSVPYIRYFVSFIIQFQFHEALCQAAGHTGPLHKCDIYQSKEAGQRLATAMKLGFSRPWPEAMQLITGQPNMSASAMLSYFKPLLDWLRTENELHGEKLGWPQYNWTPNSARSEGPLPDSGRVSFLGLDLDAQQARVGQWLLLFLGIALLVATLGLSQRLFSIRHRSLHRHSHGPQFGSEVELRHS

SMILES: CC(C)(C)NC[C@H](O)COc1nsnc1N1CCOCC1 [Timolol]
- clinical response (proliferating IH): clinically beneficial response
- Results Summary [1]: Responder
- inhibition at 1 µM [1]: 11.1%
- inhibition at 10 µM [1]: 57%
- inhibitory effect on haemangioma cell proliferation [2]: little effect; also recorded: consistent
- Individual Responders at 72 Hours with ≥30% Inhibition vs. Cells + Adjuvant ([3]; 1 μM): 1 μM - 0/5
- Individual Responders at 72 Hours with ≥30% Inhibition vs. Cells + Adjuvant ([3]; 10 μM): 10 μM - 4/5
- Results Summary [3]: Responder
- Estimated Optimal Dosage Range in vitro [3]: 1 to 10 µM
- inhibition of all five patient-derived haemangioma cell lines [3]: significantly inhibited

SMILES: CCOC(=O)[C@H](CCc1ccccc1)N[C@H]1CCCN2CCC[C@@H](C(=O)O)N2C1=O [Cilazapril]
- Solubility [4]: 5000 µg/mL (≈ 12 mM)
- Half life: short or long acting [5]: Long acting
- IC50 (ACE): 4 nM
- pKa [6]: 3.4
- pKa ([6]; second value): 6.5
- Log P ([7]; Table 1): 0.8
- log P [7]: 0.8
- dose-response across all cell lines [8]: typical dose-response
- inhibition of proliferating hemangioma cells ([1]; 1 μM and 10 μM): good and similar level of inhibition
- Results Summary [1]: Responder
- inhibition at 1 µM [1]: 4.35%
- inhibition at 10 µM [1]: 60.5%
- inhibitory effect on haemangioma cell proliferation [2]: diminishes over time
- increase in the inhibition of haemangioma cell proliferation compared to timolol ([2]; 24 hours): 7 fold
- Individual Responders at 72 Hours with ≥30% Inhibition vs. Cells + Adjuvant ([3]; 1 μM): 1 μM - 1/5
- Individual Responders at 72 Hours with ≥30% Inhibition vs. Cells + Adjuvant ([3]; 10 μM): 10 μM - 4/5
- Results Summary [3]: Responder
- Estimated Optimal Dosage Range in vitro [3]: 1 to 10 µM
- inhibition of all five patient-derived haemangioma cell lines [3]: significantly inhibited
